These results are taken from patent US12600731B2, “Isoxazolo[5,4-H]quinazoline compounds as protein kinase inhibitors” (CHENGDU CYNOGEN BIO-PHARMACEUTICAL TECHNOLOGY CO., LTD., priority 2019, dated 2026).

pIC50: −log10 of the molar value. Structures can show the parent of a compound that is named as a salt.

Holding throughout (assay type): biochemical
For experiment [1], the target named is CDK4/cyclin D3 (Homo sapiens, UniProt P11802). As to the kind of experiment: Kinase activity assay, Caliper Mobility Shift Assay, CDK4/cyclin D3. The conditions noted are these: 10 nM kinase, ATP 250 μM, 150 minutes at room temperature. As to the method: (§1) The inhibitory effect of compounds against the kinase CDK4/cyclin D3 was detected by Caliper Mobility Shift Assay method. The final concentration of the compounds to be tested was set at 10 concentrations starting from 1 μM by 3-fold serial dilution. 5 μL of compounds at 5-fold final concentration and 10 μL of CDK4/cyclin D3 kinase solution at a final concentration of 10 nM was added to a 384-well reaction plate, respectively. The plate was pre-incubated for 10 min at room temperature (with negative control wells containing 10 μL of kinase buffer and 5 μL of 5% DMSO; positive control wells containing 10 μL of kinase solution and 5 μL of 5% DMSO). The reaction was initiated by adding 10 μL of ATP at a final concentration of 250 μM and the corresponding substrate peptide mixture at room temperature for 150 minutes. 30 μL of stop detection solution containing EDTA was added to stop the kinase reaction. Caliper EZ Reader was used to read the conversion rate. Inhibition rate %=(average conversion rate of positive control %−conversion rate of sample %)/(average conversion rate of positive control %−average conversion rate of negative control %). wherein: negative control wells represent the conversion rate readings of wells without enzymatic activity; positive control wells represent conversion readings for wells with no compound inhibition. The log(inhibitor) vs. response—Variable slope of the analysis software GraphPad Prism 5 was used with log concentration value as the X-axis and the percent inhibition rate as the Y-axis to fit the dose-response curve, the IC50 value of each compound on the enzyme activity was thus obtained. Calculation formula: Y=Bottom+(Top−Bottom)/(1+10^((Log IC50−X)*HillSlope)).

Experiment [2] addresses CDK6/Cyclin D3 (Homo sapiens, UniProt Q00534). The experiment is described as follows: Kinase activity assay, CDK6/Cyclin D3 (tested in a similar manner). The conditions noted are these: tested in a similar manner to CDK4/cyclin D3. As to the method:
as §1
(§2) The IC50 values for CDK6/Cyclin D3 and CDK2/Cyclin A2 of compounds of the present disclosure were tested in a similar manner.

Experiment [3] concerns the target CDK2/Cyclin A2 (Homo sapiens, UniProt P24941). As to the kind of experiment: Kinase activity assay, CDK2/Cyclin A2 (tested in a similar manner). The conditions noted are these: tested in a similar manner to CDK4/cyclin D3. The protocol:
as §1, §2

Sequence of CDK4/cyclin D3 (P11802 whole entry, species assumed): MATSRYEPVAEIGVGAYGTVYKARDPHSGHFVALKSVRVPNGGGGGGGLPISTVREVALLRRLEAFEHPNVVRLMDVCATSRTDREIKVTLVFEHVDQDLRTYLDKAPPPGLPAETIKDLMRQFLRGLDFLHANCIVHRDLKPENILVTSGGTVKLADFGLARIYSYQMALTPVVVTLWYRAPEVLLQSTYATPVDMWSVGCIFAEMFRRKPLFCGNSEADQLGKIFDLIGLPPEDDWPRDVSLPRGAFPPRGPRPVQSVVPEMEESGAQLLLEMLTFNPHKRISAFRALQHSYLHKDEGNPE
Sequence of CDK4/cyclin D3 (P30281 whole entry partner, species assumed): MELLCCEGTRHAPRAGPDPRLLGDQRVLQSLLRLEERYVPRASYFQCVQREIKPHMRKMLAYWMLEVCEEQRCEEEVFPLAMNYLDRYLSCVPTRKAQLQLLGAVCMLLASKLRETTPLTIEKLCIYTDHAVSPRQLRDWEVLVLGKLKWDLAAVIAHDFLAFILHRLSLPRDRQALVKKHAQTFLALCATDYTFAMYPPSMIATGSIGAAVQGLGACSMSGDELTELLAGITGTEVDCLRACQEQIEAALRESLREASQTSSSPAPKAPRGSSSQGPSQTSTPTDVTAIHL
Sequence of CDK6/Cyclin D3 (Q00534 whole entry, species assumed): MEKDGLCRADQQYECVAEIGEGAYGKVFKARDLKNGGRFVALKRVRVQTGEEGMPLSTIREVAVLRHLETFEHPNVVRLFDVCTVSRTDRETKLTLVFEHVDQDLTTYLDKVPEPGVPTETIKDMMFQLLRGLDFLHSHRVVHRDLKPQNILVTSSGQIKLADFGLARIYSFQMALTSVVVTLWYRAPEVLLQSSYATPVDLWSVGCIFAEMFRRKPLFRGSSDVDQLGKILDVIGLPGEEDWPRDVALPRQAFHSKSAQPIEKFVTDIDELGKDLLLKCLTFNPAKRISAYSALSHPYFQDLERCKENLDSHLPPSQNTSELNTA
Sequence of CDK6/Cyclin D3 (P30281 whole entry partner, species assumed): as the sequence (P30281 whole entry partner, species assumed) above

For `CC(C)c1noc2ccc3cnc(Nc4ccc(N5CCNCC5)cn4)nc3c12` [Compound I-1, 9-isopropyl-N-(5-(piperazin-1-yl)pyridin-2-yl)isoxazolo[5,4-H]quinazolin-2-amine hydrochloride], the values for the pIC50 in experiment [1] and in experiment [2] were 8.70 and 8.15, respectively.

In the case of `Cc1cc(Nc2ncc3ccc4onc(C(C)C)c4c3n2)ncc1N1CCNCC1` [Compound I-2, 9-isopropyl-N-(4-methyl-5-(piperazin-1-yl)pyridin-2-yl)isoxazolo[5,4-H] quinazolin-2-amine], the pIC50 is 8.22 in experiment [1] and 7.64 in experiment [2].

On to `Cc1nc(Nc2ncc3ccc4onc(C(C)C)c4c3n2)ccc1N1CCNCC1` [Compound I-3, 9-isopropyl-N-(6-methyl-5-(piperazin-1-yl)pyridin-2-yl)isoxazolo[5,4-H] quinazolin-2-amine], for which the pIC50 is 8.10 in experiment [1] and 7.44 in experiment [2].

`CC(C)c1noc2ccc3cnc(Nc4ccc(N5CCN(C)CC5)cn4)nc3c12` [Compound I-4, 9-isopropyl-N-(5-(4-methylpiperazin-1-yl)pyridin-2-yl)isoxazolo [5,4-H]quinazolin-2-amine]: the pIC50 in experiment [1] is 9.00; in experiment [2], 8.40.

Regarding `CCN1CCN(c2ccc(Nc3ncc4ccc5onc(C(C)C)c5c4n3)nc2)CC1` [Compound I-5, N-(5-(4-ethylpiperazin-1-yl)pyridin-2-yl)-9-isopropylisoxazolo [5,4-H]quinazolin-2-amine], the pIC50 in experiment [1] is 9.00; in experiment [2] it was 8.40.

Consider `CCN1CCN(c2cnc(Nc3ncc4ccc5onc(C(C)C)c5c4n3)cc2C)CC1` [Compound I-6, N-(5-(4-ethylpiperazin-1-yl)-4-methylpyridin-2-yl)-9-isopropylisoxazolo[5,4-H] quinazolin-2-amine], for which the pIC50 in experiment [1] was 7.09; in experiment [2], 6.42.

Regarding `CCN1CCN(c2ccc(Nc3ncc4ccc5onc(C(C)C)c5c4n3)nc2C)CC1` [Compound I-7, N-(5-(4-ethylpiperazin-1-yl)-6-methylpyridin-2-yl)-9-isopropylisoxazolo [5,4-H]quinazolin-2-amine], the results for the pIC50 in experiment [1] and in experiment [2] were 7.44 and 6.75, respectively.

As to `CC(C)c1noc2ccc3cnc(Nc4ccc(N5CCOCC5)cn4)nc3c12` [Compound I-8, 9-isopropyl-N-(5-morpholinopyridin-2-yl)isoxazolo[5,4-H] quinazolin-2-amine], the pIC50 in experiment [1] is 8.30; in experiment [2] it was 7.82.

Turning to `CC(C)c1noc2ccc3cnc(Nc4ccc(N5CCN(C(C)C)CC5)cn4)nc3c12` [Compound I-9, 9-isopropyl-N-(5-(4-isopropylpiperazin-1-yl)pyridin-2-yl)isoxazolo [5,4-H]quinazolin-2-amine], the pIC50 in experiment [1] is 8.40; in experiment [2], 7.85.

In the case of `CC(C)c1noc2ccc3cnc(Nc4ccc(N5CCN(C6CC6)CC5)cn4)nc3c12` [Compound I-10, N-(5-(4-eyelopropylpiperazin-1-yl)pyridin-2-yl)-9-isopropylisoxazolo[5,4-H] quinazolin-2-amine], the figures for the pIC50 in experiment [1] and in experiment [2] were 7.68 and 7.17, respectively.

Regarding `CC(C)CN1CCN(c2ccc(Nc3ncc4ccc5onc(C(C)C)c5c4n3)nc2)CC1` [Compound I-11, N-(5-(4-isobutylpiperazin-1-yl)pyridin-2-yl)-9-isopropylisoxazolo[5,4-H] quinazolin-2-amine], the pIC50 is 8.10 in experiment [1] and 7.62 in experiment [2].

On to `CCN1CCN(Cc2ccc(Nc3ncc4ccc5onc(C(C)C)c5c4n3)nc2)CC1` [Compound I-12, N-(5-((4-ethylpiperazin-1-yl)methyl)pyridin-2-yl)-9-isopropylisoxazolo[5,4-H] quinazolin-2-amine], for which the pIC50 was 8.05 in experiment [1] and 7.40 in experiment [2].

As for `CC(C)c1noc2ccc3cnc(Nc4ccc(N5CCC(N(C)C)CC5)cn4)nc3c12` [Compound I-13, N-(5-(4-(dimethylamino)piperidin-1-yl)pyridin-2-yl)-9-isopropylisoxazolo [5,4-H]quinazolin-2-amine], the pIC50 was 8.40 in experiment [1] and 7.92 in experiment [2].

For the compound `CC(C)c1noc2ccc3cnc(Nc4ccc(C5CCNCC5)cn4)nc3c12` [Compound I-14, 9-isopropyl-N-(5-(piperidin-4-yl)pyridin-2-yl)isoxazolo[5,4-H] quinazolin-2-amine], the pIC50 was 8.40 in experiment [1] and 8.00 in experiment [2].

For `CC(C)c1noc2ccc3cnc(Nc4ccc(N5CCNCC5)nn4)nc3c12` [Compound I-15, 9-isopropyl-N-(6-(piperazin-1-yl)pyridazin-3-yl)isoxazolo[5,4-H]quinazolin-2-amine], the pIC50 was 8.15 in experiment [1] and 7.72 in experiment [2].

For the compound `CC(C)c1noc2ccc3cnc(Nc4ccc(N5CCNCC5=O)cn4)nc3c12` [Compound I-16, 1-(6-((9-isopropylisoxazolo[5,4-H]quinazolin-2-yl)amino)pyridin-3-yl)piperazin-2-one], the pIC50 was 8.15 in experiment [1] and 7.60 in experiment [2].

As for `CC(C)c1noc2ccc3cnc(Nc4ccc(N5CCS(=O)(=O)CC5)cn4)nc3c12` [Compound I-17, 4-(6-((9-isopropylisoxazolo[5,4-H]quinazolin-2-yl)amino)pyridin-3-yl)thiomorpholine 1,1-dioxide], the pIC50 in experiment [1] is 8.30; in experiment [2], 7.68.

Consider `CC(C)Cc1noc2ccc3cnc(Nc4ccc(N5CCNCC5)cn4)nc3c12` [Compound I-18, 9-isobutyl-N-(5-(piperazin-1-yl)pyridin-2-yl)isoxazolo[5,4-H]quinazolin-2-amine], for which the pIC50 in experiment [1] is 8.22; in experiment [2] it was 7.49.

Regarding `CC(C)Cc1noc2ccc3cnc(Nc4ccc(N5CCN(C)CC5)cn4)nc3c12` [Compound I-19, 9-isobutyl-N-(5-(4-methylpiperazin-1-yl)pyridin-2-yl)isoxazolo[5,4-H] quinazolin-2-amine], the values for the pIC50 in experiment [1] and in experiment [2] were 8.15 and 7.43, respectively.

For `CCN1CCN(c2ccc(Nc3ncc4ccc5onc(CC(C)C)c5c4n3)nc2)CC1` [Compound I-20, N-(5-(4-ethylpiperazin-1-yl)pyridin-2-yl)-9-isobutylisoxazolo[5,4-H] quinazolin-2-amine], the values for the pIC50 in experiment [1] and in experiment [2] were 8.15 and 7.41, respectively.

Consider `CC(C)Cc1noc2ccc3cnc(Nc4ccc(N5CCOCC5)cn4)nc3c12` [Compound I-21, 9-isobutyl-N-(5-morpholinopyridin-2-yl)isoxazolo[5,4-H]quinazolin-2-amine], for which the negative logarithm of the IC50 (pIC50) in experiment [1] is 7.33; in experiment [2], 6.61.

In the case of `c1cc(Nc2ncc3ccc4onc(C5CCCC5)c4c3n2)ncc1N1CCNCC1` [Compound I-22, 9-cyclopentyl-N-(5-(piperazin-1-yl)pyridin-2-yl)isoxazolo[5,4-H] quinazolin-2-amine], the pIC50 in experiment [1] was 8.15; in experiment [2], 7.68.

`CN1CCN(c2ccc(Nc3ncc4ccc5onc(C6CCCC6)c5c4n3)nc2)CC1` [Compound I-23, 9-cyclopentyl-N-(5-(4-methylpiperazin-1-yl)pyridin-2-yl)isoxazolo[5,4-H]quinazolin-2-amine]: the pIC50 in experiment [1] was 8.30; in experiment [2], 7.82.

`CC(C)c1noc2c1-c1nc(Nc3ccc(N4CCNCC4)cn3)ncc1CC2` [Compound I-24, 9-isopropyl-N-(5-(piperazin-1-yl)pyridin-2-yl)-5,6-dihydroisoxazolo[5,4-h]quinazolin-2-amine hydrochloride]: the pIC50 was 7.89 in experiment [1] and 7.09 in experiment [2].

With `CCN1CCN(c2ccc(Nc3ncc4c(n3)-c3c(C(C)C)noc3CC4)nc2)CC1` [Compound I-25, N-(5-(4-ethylpiperazin-1-yl)pyridin-2-yl)-9-isopropyl-5,6-dihydroisoxazolo [5,4-H]quinazolin-2-amine], the pIC50 was 7.96 in experiment [1] and 7.19 in experiment [2].

Take `CC(C)c1noc2c1-c1nc(Nc3ccc(N4CCOCC4)cn3)ncc1CC2` [Compound I-26, 9-isopropyl-N-(5-morpholinopyridin-2-yl)-5,6-dihydroisoxazolo[5,4-H] quinazolin-2-amine]: the figures for the pIC50 in experiment [1] and in experiment [2] were 7.20 and 6.56, respectively.

With `CC(C)c1noc2ccc3cnc(Nc4ccc(N5CCNCC5)cc4)nc3c12` [Compound I-27, 9-isopropyl-N-(4-(piperazin-1-yl)phenyl)isoxazolo[5,4-H]quinazolin-2-amine], the pIC50 in experiment [3] is 8.22; in experiment [1] it was 8.52; in experiment [2] it was 8.10.

In the case of `CCN1CCN(c2ccc(Nc3ncc4ccc5onc(C(C)C)c5c4n3)cc2)CC1` [Compound I-28, N-(4-(4-ethylpiperazin-1-yl)phenyl)-9-isopropylisoxazolo[5,4-h] quinazolin-2-amine], the pIC50 in experiment [3] is 8.40; in experiment [1] it was 8.70; in experiment [2], 8.30.
